Results taken from patent US7045648B2, “Compound as cholinesterase inhibitor and its isolation from fungus sporotrichum species” (priority 2002, dated 2006).

How the values were obtained:
[1] = system: serine esterase of the rat liver serum; assay: Serine esterase inhibition; assay type: biochemical
[2] = molecular target: T1, rat brain acetylcholinesterase (Rattus norvegicus, UniProt P37136); assay: Rat brain acetylcholinesterase inhibition (Ellman method); assay type: biochemical; settings: rat brain enzyme; 15 min pre-incubation at 25° C.; acetyl thiocholine iodide 0.5 mM; pH 7.4; read-out: IC50 against rat brain AchE
T1 construct: from tissue; host or cells: rat brain
T1 sequence (P37136 32-614): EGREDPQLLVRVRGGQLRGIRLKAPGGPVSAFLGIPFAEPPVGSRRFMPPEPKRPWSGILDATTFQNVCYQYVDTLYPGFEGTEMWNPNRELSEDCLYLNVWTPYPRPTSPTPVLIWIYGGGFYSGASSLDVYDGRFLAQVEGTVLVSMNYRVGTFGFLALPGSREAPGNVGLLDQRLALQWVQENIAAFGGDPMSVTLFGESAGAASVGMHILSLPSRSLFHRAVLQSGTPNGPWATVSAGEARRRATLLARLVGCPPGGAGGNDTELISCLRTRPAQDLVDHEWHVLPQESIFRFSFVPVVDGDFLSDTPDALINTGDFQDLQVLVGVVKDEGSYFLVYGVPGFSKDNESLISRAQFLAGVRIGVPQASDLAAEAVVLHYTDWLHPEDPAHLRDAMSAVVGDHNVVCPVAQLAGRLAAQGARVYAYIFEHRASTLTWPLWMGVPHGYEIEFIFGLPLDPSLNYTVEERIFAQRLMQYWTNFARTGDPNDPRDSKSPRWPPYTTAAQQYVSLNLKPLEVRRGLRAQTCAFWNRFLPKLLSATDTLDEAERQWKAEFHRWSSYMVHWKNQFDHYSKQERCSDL
Procedure: Absorbance change at 412 nm is monitored every 30 seconds for 2 min in an UV-VIS Spectrophotometer. Inhibition is calculated relative to the solvent control. IC50 is determined by regression analysis.

[3] = molecular target: T2, acetylcholinesterase from erythrocytes (Homo sapiens, UniProt P22303); assay: Erythrocyte acetylcholinesterase inhibition; assay type: biochemical, rat; settings: erythrocyte enzyme; read-out: IC50 against acetylcholinesterase from erythrocytes
T2 construct: from tissue; host or cells: erythrocytes

[4] = Solubility in organic solvents; assay type: physicochemical; settings: in ethyl acetate, methanol and acetone
[5] = system: mosquito larvae culex quinquifasciatus; assay: Insecticidal activity against mosquito larvae; assay type: in vivo; settings: in water (70 ppm); exposed for 24 hrs
Procedure: Yet another embodiment of the present invention, wherein said compound effective against mosquito larvae at an optimum concentration of 70 μg/ml water (70 ppm) when exposed for 24 hrs.
Still another embodiment of the present invention, wherein the insecticidal activity of the compound against mosquito larvae is selected from culex quinquifasciatus.

T2 sequence (P22303 32-617 isoform P22303-2 limits assumed): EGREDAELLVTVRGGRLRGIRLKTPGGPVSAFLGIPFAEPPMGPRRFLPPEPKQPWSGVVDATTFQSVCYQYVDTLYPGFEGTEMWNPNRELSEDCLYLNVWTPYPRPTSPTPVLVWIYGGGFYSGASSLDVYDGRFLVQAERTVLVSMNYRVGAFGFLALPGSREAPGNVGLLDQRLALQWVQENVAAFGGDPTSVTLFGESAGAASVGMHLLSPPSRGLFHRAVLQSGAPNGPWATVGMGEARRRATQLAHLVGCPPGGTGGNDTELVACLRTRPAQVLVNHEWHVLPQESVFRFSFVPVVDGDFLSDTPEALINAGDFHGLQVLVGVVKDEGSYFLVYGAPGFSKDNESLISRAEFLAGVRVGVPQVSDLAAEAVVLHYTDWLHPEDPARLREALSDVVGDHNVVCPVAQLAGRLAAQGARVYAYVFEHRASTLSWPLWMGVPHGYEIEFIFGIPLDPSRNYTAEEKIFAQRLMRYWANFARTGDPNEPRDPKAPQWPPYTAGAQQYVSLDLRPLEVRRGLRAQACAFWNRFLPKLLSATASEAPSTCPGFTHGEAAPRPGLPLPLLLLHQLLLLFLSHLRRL

## COc1ccc(C(=O)O)c(C(O)CCCCCCCC(=O)CC(C)O)c1 (centres unmarked) [Sporotricolone, 12-(2′-CARBOXY-5′-METHOXYPHENYL)-2,12-DIHYDROXY-DODECA-4-ONE]
[1]
  inhibition of serine esterase of the rat liver serum: inhibitor
[2]
  IC50: 20 µM
[3]
  IC50: 20 µM
[4]
  Solubility: Highly soluble
[5]
  optimum concentration effective against mosquito larvae: 70 µg/mL
